The record followed here is patent publication US20240050579A1, “HYALURONAN-NIMESULIDE CONJUGATE FOR TREATING LOCALLY ADVANCED OR METASTATIC TUMORS” (Aihol Corporation, priority 2022, published 2024).

Holding throughout (type): in vivo
Test [1] deals with MDA-MB-231 human breast cancer cells. In words: Tumor volume in MDA-MB-231 tumor-bearing mice. The following applies: 5-FU alone 30 mg/kg TIW vs vehicle control. The method, then:
(§1) Immunocompromised, Nu/Nu, Female athymic nu/nu (nude) mice (ages 5-6 weeks, LASCO) were purchased from LASCO. Animals were housed in individual HEPA ventilated cages (Innocage® IVC, Innovive USA) housed for stabilization. Fluorescent lighting was provided on a 12-hour cycle under temperature (20-23° C.) and humidity control (30-70%). Rodent feed and water were provided ad libitum.
MDA-MB-231 human breast cancer Cells (5×10^6) in PBS buffer were implanted subcutaneously on the right flank of each mouse. Once tumors were detectable, palpable and measurable, the primary tumor volumes were measured and recorded every 3 or 4 days. Tumor volume was calculated as ½×L×W^2, where L is the length and W is the width. […] Subjects were terminated from the study when the tumor volume reached approximately 1500 mm^3 or the body weight loss was greater than 20% (IACUC protocol limits).

The test system of test [2] is HT-29 human colon adenocarcinoma cells. Description: Tumor volume / TGI in HT-29 tumor-bearing mice. The following applies: for TGI (tumor growth inhibition rate): HT-29 mice, 5-FU 50 mg/kg QW. The method, then: as §1
HT-29 human colon adenocarcinoma cells (2×10^7) in PBS buffer were implanted subcutaneously on the right flank of each mouse. Once tumors were detectable, palpable and measurable, the primary tumor volumes were measured and recorded every 3 or 4 days. Tumor volume was calculated as ½(4π/3)(L/2)(W/2)H, where L is the length, W is the width, and H is the height of the tumor. […] Subjects were terminated from the study when the tumor volume reached approximately 1500 mm^3 or the body weight loss was greater than 20% (IACUC protocol limits).

For test [3], the system named is CT26 mouse colon carcinoma. In words: Tumor volume / TGI in CT26 mice. The following applies: 5-FU alone 50 mg/kg IV QW. The method, then:
Immunocompetent, female Balb/C […] mice (ages 6-8 weeks) were ordered and received from National Laboratory Animal Center. Animals were housed on irradiated corncob bedding in micro-isolator caging. Fluorescent lighting was provided on a 12-hour cycle under temperature (20-23° C.) and humidity control (30-70%). Rodent feed and autoclaved acidified water (pH 2.5-3) were provided ad libitum.
CT26 is an N-nitroso-N-methylurethane-(NNMU) induced, undifferentiated mouse colon carcinoma cell line. CT26 carcinoma cells were grown in McCoy's 5a culture medium supplemented with 10% (v/v) FBS and 1% PSN antibiotic mixture. The cells were maintained in an incubator with a humidified environment of 5% CO^2 at 37° C. in a 175 cm 2 flask and subcultured 2-3 times each week. On the study day, CT26 cells were thawed and prepared for inoculation into mice. Cells were washed in PBS, counted, and resuspended in cold PBS at concentrations of 2×10^6 viable cells/0.1 ml. […]
Animals were monitored weekly for palpable tumors or any changes in appearance or behavior. Once tumors were palpable, they were measured using calipers. Tumor volume was calculated using the following equation ½(4π/3)(L/2)(W/2)H, where L is the length, W is the width, and H is the height of the tumor. […] Data were expressed as mean±SEM.

Turning to `O=c1[nH]cc(F)c(=O)[nH]1` [5-FU, 5-fluorouracil], the tumor growth result was “did reduce tumor growth” in test [1] and “did not reduce tumor growth” in test [2] (HT-29 tumor-bearing mice, 5-FU alone 50 mg/kg QW vs vehicle control). Moreover, the “TGI (tumor growth inhibition rate)” value in test [2] (D21) was ~60%; in test [2] (D28), ~45%. Also, in test [3], the TGI rate result is given as “approximately 70%”.
